Experimental data from PubChem BioAssay AID1259407 (Chemical Carcinogenesis Research Information System (CCRIS), 2018).
Activity calls are given as the source filed them. The rule behind the calls is not given here.

Tested on: CCRIS mutagenicity, Ames/micronucleus/aberration tests
Experiment: CCRIS mutagenicity studies
[1] = Test System: AMES SALMONELLA TYPHIMURIUM, Strain/Indicator: TA98, Metabolic Activation: RAT, LIVER, S-9, AROCLOR 1254, Method: STANDARD PLATE
[2] = Test System: AMES SALMONELLA TYPHIMURIUM, Strain/Indicator: TA100, Metabolic Activation: NONE, Method: STANDARD PLATE
[3] = Test System: AMES SALMONELLA TYPHIMURIUM, Strain/Indicator: TA100, Metabolic Activation: RAT, LIVER, S-9, AROCLOR 1254, Method: STANDARD PLATE
[4] = Test System: AMES SALMONELLA TYPHIMURIUM, Strain/Indicator: TA1535, Metabolic Activation: RAT, LIVER, S-9, AROCLOR 1254, Method: STANDARD PLATE

SMILES: O=C/C=C/C=C/C=O
- mutagenic call (Test System: AMES SALMONELLA TYPHIMURIUM, Strain/Indicator: TA97, Metabolic Activation: NONE, Method: PREINCUBATION): inactive; negative
- mutagenic call (Test System: AMES SALMONELLA TYPHIMURIUM, Strain/Indicator: TA97, Metabolic Activation: NONE, Method: STANDARD PLATE): active; positive
- mutagenic call (Test System: AMES SALMONELLA TYPHIMURIUM, Strain/Indicator: TA97, Metabolic Activation: RAT, LIVER, S-9, AROCLOR 1254, Method: PREINCUBATION): inactive; negative
- mutagenic call (Test System: AMES SALMONELLA TYPHIMURIUM, Strain/Indicator: TA97, Metabolic Activation: RAT, LIVER, S-9, AROCLOR 1254, Method: STANDARD PLATE): active; positive
- mutagenic call (Test System: AMES SALMONELLA TYPHIMURIUM, Strain/Indicator: TA98, Metabolic Activation: NONE, Method: PREINCUBATION): inactive; negative
- mutagenic call (Test System: AMES SALMONELLA TYPHIMURIUM, Strain/Indicator: TA98, Metabolic Activation: RAT, LIVER, S-9, AROCLOR 1254, Method: PREINCUBATION): inactive; negative
- mutagenic call [1]: inactive; negative
- mutagenic call (Test System: AMES SALMONELLA TYPHIMURIUM, Strain/Indicator: TA100, Metabolic Activation: NONE, Method: PREINCUBATION): inactive; negative
- mutagenic call [2]: inactive; negative
- mutagenic call (Test System: AMES SALMONELLA TYPHIMURIUM, Strain/Indicator: TA100, Metabolic Activation: RAT, LIVER, S-9, AROCLOR 1254, Method: PREINCUBATION): inactive; negative
- mutagenic call [3]: inactive; negative
- mutagenic call (Test System: AMES SALMONELLA TYPHIMURIUM, Strain/Indicator: TA102, Metabolic Activation: NONE, Method: PREINCUBATION): inactive; negative
- mutagenic call (Test System: AMES SALMONELLA TYPHIMURIUM, Strain/Indicator: TA102, Metabolic Activation: RAT, LIVER, S-9, AROCLOR 1254, Method: PREINCUBATION): inactive; negative
- mutagenic call (Test System: AMES SALMONELLA TYPHIMURIUM, Strain/Indicator: TA104, Metabolic Activation: NONE, Method: PREINCUBATION): inactive; negative
- mutagenic call (Test System: AMES SALMONELLA TYPHIMURIUM, Strain/Indicator: TA104, Metabolic Activation: RAT, LIVER, S-9, AROCLOR 1254, Method: PREINCUBATION): inactive; negative
- mutagenic call (Test System: AMES SALMONELLA TYPHIMURIUM, Strain/Indicator: TA1535, Metabolic Activation: NONE, Method: PREINCUBATION): inactive; negative
- mutagenic call (Test System: AMES SALMONELLA TYPHIMURIUM, Strain/Indicator: TA1535, Metabolic Activation: RAT, LIVER, S-9, AROCLOR 1254, Method: PREINCUBATION): inactive; negative
- mutagenic call [4]: inactive; negative
- mutagenic call (Test System: AMES SALMONELLA TYPHIMURIUM, Strain/Indicator: TA1538, Metabolic Activation: RAT, LIVER, S-9, AROCLOR 1254, Method: STANDARD PLATE): inactive; negative
- mutagenic call (Test System: CHINESE HAMSTER OVARY, Strain/Indicator: CHO-K1-BH4 (HGPRT), Metabolic Activation: NONE, Method: STANDARD PLATE): inactive; negative
- mutagenic call (Test System: CHINESE HAMSTER V-79, Strain/Indicator: V-79 (HGPRT)/8-AZAGUANINE, Metabolic Activation: NONE): active; positive
- mutagenic call (Test System: CHINESE HAMSTER V-79, Strain/Indicator: V-79/6-THIOGUANINE, Metabolic Activation: NONE): active; positive
- mutagenic call (Test System: E. COLI, Strain/Indicator: WP2 UVRA, Metabolic Activation: NONE, Method: PREINCUBATION): inactive; negative
- mutagenic call (Test System: E. COLI, Strain/Indicator: WP2 UVRA, Metabolic Activation: RAT, LIVER, S-9, AROCLOR 1254, Method: PREINCUBATION): inactive; negative
- mutagenic call (Test System: UDS RODENT HEPATOCYTES, Strain/Indicator: THY INCORP (NON-S-PHASE), Metabolic Activation: NONE, Method: AUTORADIOGRAPHY): inactive; negative

SMILES: ONc1ccccc1
- mutagenic call (Test System: AMES SALMONELLA TYPHIMURIUM, Strain/Indicator: TA100, Metabolic Activation: RAT, LIVER, S-9, PCB, Method: PREINCUBATION): active; positive
- mutagenic call (Test System: E. COLI, Strain/Indicator: WP2 UVRA, Metabolic Activation: NONE, Method: FLUCTUATION TEST): inactive; negative

SMILES: COc1nc(C(Cl)(Cl)Cl)c(Cl)c(OC)c1Cl
- mutagenic call (Test System: Mouse lymphoma, Strain/Indicator: L5178Y (tk+/tk-), Metabolic Activation: Rat, Liver, S-9, Aroclor 1254, Method: Suspension/plate): active; positive

SMILES: C=C(C)C1CCC2(C)OC2C1 (stereo unspecified)
- mutagenic call [2]: inactive; negative
- mutagenic call [3]: inactive; negative
- mutagenic call (Test System: AMES SALMONELLA TYPHIMURIUM, Strain/Indicator: TA1535, Metabolic Activation: NONE, Method: STANDARD PLATE): inactive; negative
- mutagenic call [4]: inactive; negative
- mutagenic call (Test System: UDS RAT HEPATOCYTES, Strain/Indicator: THY INCORP, Metabolic Activation: NONE): inactive; negative

SMILES: O[C@H]1[C@H]2O[C@H]2c2c(ccc3c4c5c(cccc5cc23)C=C4)[C@@H]1O
- mutagenic call (Test System: AMES SALMONELLA TYPHIMURIUM, Strain/Indicator: TA98, Metabolic Activation: NONE, Method: STANDARD PLATE): active; positive
- mutagenic call (Test System: AMES SALMONELLA TYPHIMURIUM, Strain/Indicator: TA98, Metabolic Activation: RAT, LIVER, S-9, AROCLOR 1254 (0.4, 0.8, 1.15 OR 1.5 MG/PLATE), Method: STANDARD PLATE): active; positive
- mutagenic call [1]: active; positive
